Test results taken from article PMC4389225, “Triaminopyrimidine is a fast-killing and long-acting antimalarial clinical candidate” (Nature Communications, 2015).
“And” between values parts separate entries of the source, which are not always exact repeats. Equal values may be shown once. Read-outs that look alike come from different tables or passages of the source.

Key:
[1] = system: Pf3D7^0087/N9; experiment: animal or person; format: in vivo, Plasmodium falciparum
From the text: All animal studies were ethically reviewed and carried out in accordance with European Directive 86/609/EEC and the GSK Policy on the Care, Welfare and Treatment of Animals. During this experiment, female mice were used from the batch NSGJ 01/1 (The Jackson Laboratory, USA). The therapeutic efficacy of compound 12 against Pf3D7^0087/N9 was studied using a ‘4-day test’ reported earlier. Briefly, NODscidIL2Rγ^null mice engrafted with human erythrocytes were infected with 20 × 10^6 Pf-infected erythrocytes. Infections were performed by i.v. inoculation. All mice were randomly assigned to their corresponding treatment. The treatment started at day 3 and finished at day 6 after infection. The compound was administered orally as a suspension in 0.5% w/v hydroxypropyl methylcellulose (HPMC) with 0.1% v/v Tween 80, using an oral gavage at a maximum dose volume of 20 ml kg^−1. Vehicle alone was administered in untreated mice. In all cases, parasitemia was assessed in samples from peripheral blood obtained at days 3–7 after infection. A qualitative analysis of the effect of treatment on Pf3D7^0087/N9 was assessed by microscopy and flow cytometry. Fresh samples of peripheral blood from Pf-infected mice were stained with TER-119-Phycoerythrine (marker of murine erythrocytes) and SYTO-16 (nucleic acid dye) and then analysed by flow cytometry (FACS Calibur, BD). Microscopy analysis was performed with Giemsa-stained blood smears from samples taken at days 5 and 7 (48 and 96 h after starting treatment, respectively).
PK-PD model for the metabolite (compound 9) alone. Pharmacokinetic data from the Pf/SCID model was linked to efficacy using the following equation5.
Where P [log (total no. of parasites / mouse)], Kgro (growth rate constant), Pmax (log (maximum no. of parasites / mouse)), Kkill (maximum kill rate constant), H (Hill slope), EC50 (concentration required for achieving half maximal kill rate) and Ce (concentration of the drug in the effect compartment). Percent parasitemia values were converted into total number of parasites in mouse blood assuming […] (9.23 log10) RBCs per mouse. The lower limit of quantitation for % parasitemia was 0.01% or 5.23 log10. Effect compartment was used for modelling the delay observed in efficacy at a lower dose. […]

[2] = design: species or system human
From the text: Supplementary Note 5: Prediction of human clearance for compound 12 by IVIVE.
Human clearance (CL) was predicted by in vitro-in vivo extrapolation (IVIVE) from the in vitro Clint in human hepatocytes6. In vitro Clint was scaled to in vivo Clint as follows:
Clint in vivo = Clint in vitro * scaling factors * fublood/fuinc
The liver weights used for scaling were 40, 32 and 24 g/kg body weight in rat, dog and human respectively. Hepatocellularity used for scaling was 163, 169 and 120 (X 106) cells/g liver in rat, dog and human respectively. Free fraction in blood was calculated as fuplasma /Blood:Plasma (BP) ratio. BP ratio and free fraction in the hepatocyte incubation mix, fuinc, were measured in vitro. Slope and intercept from the linear regression analysis of IVIVC for a large number of AstraZeneca compounds was applied for final correction in the scaled in vivo Clint. A well stirred model was used for CL prediction.
Where Qh is the liver blood flow. The values of Qh in rat, dog and human are 72, 55 and 20 mL.min-1kg-1 in rat, dog and human, respectively. In vitro parameters, observed in vivo CL and predicted CL are shown in supplementary Table 10.
Prediction of human CL and Vss by rat and dog allometry. Human CL for 12 was also predicted by simple, two species (rat and dog) allometry based on CL and Vss estimates from rat and dog IVPK. The coefficient and exponent from allometry were used for human CL prediction by the Fu corrected intercept method (FCIM)7. CL was predicted as […]
(also on this page, place not known: in vivo in vivo CLintQ CLintQCL Predicted predicted predicted h h + ×=)
(1 picture or pasted object on this page, not shown here)
Where ‘a’ is the coefficient obtained from simple allometric scaling and Rfup is the ratio of free fractions in plasma, fup in rat to fup in human. Vss in human was predicted by simple, rat and dog allometry (supplementary Table 11).
Prediction of human PK profile. The predicted human CL and Vss estimates could be used for predicting human PK with a one compartment distribution. However, rat and dog IVPK profiles indicated a two compartment distribution. Parameters for the two compartment distribution in human were predicted by Wajima transformation8 of rat and dog IVPK […]
CLd, Vt and Vc estimates, assuming similar Ka (0.3/h) and F (0.7) as observed in rats (supplementary Fig. 12 ).
Predicted human PK parameters are shown in supplementary Table 12. Human CL estimates predicted by the FCIM method and IVIVE (3.8 ml/min/kg) were identical. The […]
Human efficacy was predicted after treatment of 70 kg adult with a single 260 mg dose, assuming 2% parasitemia at the onset of treatment and assuming one compartment distribution of 12 in humans (supplementary Fig. 13). Similar efficacy was predicted if 12 was distributed in two compartments.

[3] = 260 mg / 70 kg, two compartment

Cc1nc(Nc2ncc(N3CCN(C)[C@H](C)C3)c(Nc3cc(C)n(C)n3)n2)cc(C2CC2)c1F [compound 12, (R)-N2-(4-cyclopropyl-5-fluoro-6-methylpyridin-2-yl)-N4-(1,5-dimethyl-1H-pyrazol-3-yl)-5-(3,4-dimethylpiperazin-1-yl)pyrimidine-2,4-diamine]
clearance of Pf parasites ([1]; 4 days of daily treatment, 20 mg kg^−1, oral): below detection limit | EC50 ([1]; Plasmodium falciparum, in Mus musculus): 38 nM | ED99 ([1]; mouse model of Pf malaria): < 30 mg/kg | dose at which maximum kill rate was observed ([1]; oral, 4-day test): 40 mg/kg | Kkill ([1]; parent, model predicted estimate): 0.097 h⁻¹ | Predicted human CL [2, 3]: 4.33 mL/min/kg | Predicted human CLd [2, 3]: 20 mL/min/kg | Predicted human Vc [2, 3]: 4.0 L/kg | Predicted human Vt [2, 3]: 7.3 L/kg | Human CL predicted by the FCIM method and IVIVE ([2]; Human): 3.8 mL/min/kg | Predicted blood CL ([2]; Human): 24 % LBF | Predicted blood CL ([2]; Human, IVIVE from hepatocyte Clint): 3.8 mL/min/kg | Predicted human F ([2]; assumed similar to rats): 0.7 | Predicted human Ka ([2]; assumed similar to rats): 0.3 h⁻¹ | B—predicted mean human plasma Cmax free ([2]; human, 260 mg dose): 8.7 nM | predicted half-life in human ([2]; human, predicted): ~ 36 h and 36 h | Allometry parameter B (exponent), CL ([2]; rat and dog allometry): 1.08 | Allometry parameter a (coefficient), CL ([2]; rat and dog allometry): 0.6
